Reference: paper PMC6539495, “Anti-Cancer Activity of Novel Dihydrotestosterone-Derived Ring A-Condensed Pyrazoles on Androgen Non-Responsive Prostate Cancer Cell Lines” (International Journal of Molecular Sciences, 2019)

What was measured:
[1] = test system: DU 145 cells; experiment: MTT cell viability assay on DU 145 prostate cancer cells; type: cell-based, human; conditions: 72 hours
Experimental: (§1) HeLa, MCF-7 and MDA-MB-231 cells were obtained from Sigma-Aldrich and maintained as reported previously. MRC-5, PC-3, DU 145 cells were purchased from American Type Culture Collection (ATCC, Manassas, VA, USA). PC-3 and DU 145 were maintained in RPMI medium (Sigma-Aldrich) whereas MRC-5 cells were maintained in DMEM medium (Sigma-Aldrich). All media were complemented with 10% Fetal bovine serum (FBS, Sigma-Aldrich) 2 mM L-glutamine, 0.01% streptomycin and 0.005% ampicillin (Sigma-Aldrich). Cells were cultured under standard conditions in a 37 °C incubator containing 5% CO2 in 95% humidity.
(§2) Each test compound was dissolved in cell culture grade DMSO (Molar Chemicals, Halásztelek, Hungary) in a final concentration of […]. Antiproliferative action of the synthesized steroids was investigated by MTT assay. An amount of 5000 cells/well were seeded into 96 well plates. Twenty-four hours post seeding, all cell lines were treated with each compound in 10 and 30 μM concentrations for 72 hours. […] After 72 hours, cells were washed with PBS and incubated with culture medium containing 0.5 mg/mL MTT (3-(4, 5-dimethylthiazolyl-2)-2,5-diphenyltetrazolium bromide) reagent (SERVA, GmbH, Heidelberg, Germany) for an hour at 37 °C. Formazan crystals were solubilized in DMSO and extinction was measured at 570 nm using a Synergy HTX plate reader (BioTech-Hungary, Budapest, Hungary). MTT assays were performed at least three times using four independent biological replicates. Data were normalized to solvent controls and the graphical representation of the obtained data as well as the calculation of IC50 values were carried out by GraphPad Prism 7 software (GraphPad Software; San Diego, CA, USA).

[2] = test system: MRC-5 cells; experiment: MTT cell viability assay on non-cancerous MRC-5 fibroblasts; type: cell-based; conditions: 72 hours, MTT
Experimental: as §1, §2

[3] = test system: PC-3 cells; experiment: MTT cell viability assay on PC-3 prostate cancer cells; type: cell-based, human; conditions: for antiproliferative potency against PC-3 prostate cancer cells compared to MRC-5 non-cancerous fibroblasts: primary screen
Experimental: as §1, §2

[4] = test system: MCF-7 cells; experiment: MTT cell viability assay on MCF-7 breast cancer cells; type: cell-based, human; conditions: 72 hours
Experimental: as §1, §2

[5] = test system: HeLa cells; experiment: MTT cell viability assay on HeLa cervical cancer cells; type: cell-based, human; conditions: 72 hours
Experimental: as §1, §2

[6] = test system: MDA-MB-231 cells; experiment: MTT cell viability assay on MDA-MB-231 breast cancer cells; type: cell-based, human; conditions: 72 hours
Experimental: as §1, §2

| Compound | Mean values (%) of primary growth inhibitory screen (viability in %), DU 145 ([1]; 10 µM) | Mean values (%) of primary growth inhibitory screen (viability in %), DU 145 ([1]; 30 µM) | Mean values (%) of primary growth inhibitory screen (viability in %), MRC-5 ([2]; 10 µM) | Mean values (%) of primary growth inhibitory screen (viability in %), MRC-5 ([2]; 30 µM) | Mean values (%) of primary growth inhibitory screen (viability in %), PC-3 ([3]; 10 µM, 72 hours, MTT) | antiproliferative potency against PC-3 prostate cancer cells compared to MRC-5 non-cancerous fibroblasts ([3]; 10 µM) | Mean values (%) of primary growth inhibitory screen (viability in %), PC-3 ([3]; 30 µM, 72 hours, MTT) | Mean values (%) of primary growth inhibitory screen (viability in %), MCF-7 ([4]; 10 µM) | Mean values (%) of primary growth inhibitory screen (viability in %), MCF-7 ([4]; 30 µM) | Mean values (%) of primary growth inhibitory screen (viability in %), HeLa ([5]; 10 µM) | Mean values (%) of primary growth inhibitory screen (viability in %), HeLa ([5]; 30 µM) | Mean values (%) of primary growth inhibitory screen (viability in %), MDA-MB-231 ([6]; 10 µM) | Mean values (%) of primary growth inhibitory screen (viability in %), MDA-MB-231 ([6]; 30 µM) | IC50 ([1]; ± SD) | IC50 ([2]; ± SD) | IC50 ([3]; MTT, 72 hours, ± SD) | IC50 ([4]; ± SD) | IC50 ([5]; ± SD) | IC50 ([6]; ± SD) | antiproliferative potency against PC-3 prostate cancer cells compared to MRC-5 non-cancerous fibroblasts ([3]; 30 µM) |
| --- | --- | --- | --- | --- | --- | --- | --- | --- | --- | --- | --- | --- | --- | --- | --- | --- | --- | --- | --- | --- |
| Cc1ccccc1-n1nc2c(c1C)C[C@@]1(C)[C@@H](CC[C@@H]3[C@@H]1CC[C@]1(C)[C@@H](O)CC[C@@H]31)C2 [4b, 17β-Hydroxy-1′-(2″-tolyl)-5′-methylpyrazolo[3′,4′:3,2]-5α-androstane] | 61.1% | 48.3% | 72.9% | 64.2% | 67.5% | significantly higher | 54.7% | 39.1% | 32.4% | 36.0% | 34.1% | 69.0% | 64.0% | – | – | – | – | – | – | – |
| Cc1ccc(-n2nc3c(c2C)CC2(C)C(CCC4C5CCC(O)C5(C)CCC42)C3)cc1 (stereo not drawn) [4c, 17β-Hydroxy-1′-(4″-tolyl)-5′-methylpyrazolo[3′,4′:3,2]-5α-androstane] | 87.3% | 5.1% | 75.0% | 37.5% | 44.0% | significantly higher | 4.2% | 49.5% | 5.4% | 56.1% | 8.0% | 81.7% | 12.0% | – | – | – | – | – | – | – |
| Cc1ccc(-n2nc3c(c2C)C[C@@]2(C)[C@@H](CC[C@@H]4[C@@H]2CC[C@]2(C)[C@@H](O)CC[C@@H]42)C3)c(C)c1 [4d, 17β-Hydroxy-1′-(2″,4″-dimethylphenyl)-5′-methylpyrazolo[3′,4′:3,2]-5α-androstane] | 70.2% | 2.3% | 78.9% | 0.8% | 53.4% | – | 3.6% | 74.5% | 10.5% | 65.6% | 56.1% | 92.0% | 47.9% | – | – | – | – | – | – | – |
| Cc1c2c(nn1-c1ccc(F)cc1)CC1CCC3C4CCC(O)C4(C)CCC3C1(C)C2 (stereo not drawn) [4f, 17β-Hydroxy-1′-(4″-fluorophenyl)-5′-methylpyrazolo[3′,4′:3,2]-5α-androstane] | 71.6% | 3.9% | 68.7% | 14.8% | 41.8% | – | 5.1% | 57.1% | 5.4% | 46.1% | 7.6% | 83.4% | 32.0% | – | – | – | – | – | – | – |
| Cc1c2c(nn1-c1ccc(Cl)cc1)C[C@@H]1CC[C@@H]3[C@H](CC[C@]4(C)[C@@H](O)CC[C@@H]34)[C@@]1(C)C2 [4g, 17β-Hydroxy-1′-(4″-chlorophenyl)-5′-methylpyrazolo[3′,4′:3,2]-5α-androstane] | 74.8% | 1.4% | 80.1% | 1.1% | 44.6% | significantly higher | 3.0% | 48.5% | 5.3% | 40.1% | 4.7% | 78.4% | 5.3% | 14.2 ± 1.3 µM | 15.6 ± 1.4 µM | 7.7 ± 1.2 µM | 4.4 ± 0.3 µM | 7.2 ± 0.4 µM | 12.6 ± 1.5 µM | – |
| Cc1c2c(nn1-c1ccc(Br)cc1)C[C@@H]1CC[C@@H]3[C@H](CC[C@]4(C)[C@@H](O)CC[C@@H]34)[C@@]1(C)C2 [4h, 17β-Hydroxy-1′-(4″-bromophenyl)-5′-methylpyrazolo[3′,4′:3,2]-5α-androstane] | 95.1% | 2.2% | 92.8% | 12.7% | 61.6% | – | 3.6% | 54.1% | 5.2% | 38.2% | 5.8% | 69.4% | 10.5% | – | – | – | – | – | – | – |
| Cc1c2c(nn1-c1ccc(C#N)cc1)C[C@@H]1CC[C@@H]3[C@H](CC[C@]4(C)[C@@H](O)CC[C@@H]34)[C@@]1(C)C2 [4i, 17β-Hydroxy-1′-(4″-cyanophenyl)-5′-methylpyrazolo[3′,4′:3,2]-5α-androstane] | 104.9% | 105.7% | 100.3% | 97.4% | 56.6% | significantly higher | 53.3% | 53.6% | 50.4% | 62.9% | 72.5% | 93.0% | 89.1% | – | – | – | – | – | – | significantly higher |
| Cc1ccccc1-n1nc2c(c1C)C[C@@]1(C)[C@@H](CC[C@@H]3[C@@H]1CC[C@]1(C)C(=O)CC[C@@H]31)C2 [5b, 1′-(2″-Tolyl)-5′-methylpyrazolo[3′,4′:3,2]-5α-androst-17-one] | 82.3% | 58.4% | 93.2% | 66.2% | 62.3% | – | 43.2% | 59.3% | 63.6% | 65.5% | 66.8% | 83.0% | 76.9% | – | – | – | – | – | – | significantly higher |
